Patent publication US8742113B2, “Furanone derivative” (SBI Biotech Co., Ltd., priority 2011, dated 2014)

Tests used:
[1] = target: human Cdc7/human ASK complex protein (Homo sapiens (Human), UniProt O00311); test: Inhibitory effect on Cdc7 protein kinase (MSA assay kit); assay type: biochemical; conditions: human Cdc7/human ASK complex, FITC-labeled MCM2 peptide substrate, reaction 5 hours at room temperature; read-out: Test Example 1 Cdc7 IC50 value
Method: [Inhibitory Effect on Cdc7 Protein Kinase]
Measurement of kinase activity was carried out using an MSA assay kit (QuickScout Screening Assist™ Kit, Carna Biosciences, Inc.).
Assay buffer (20 mM HEPES, 0.01% Triton X-100™, 2 mM dithiothreitol, pH 7.5) was used to prepare a substrate mixture solution comprising 4 μM of a kinase-reaction substrate (FITC-labeled MCM2 peptide), 40 mM MgCl2, and 20 μM ATP.
The enzyme supplied in the kit (human Cdc7/human ASK complex protein) was diluted in the assay buffer so as to be at 7 nM, thereby preparing an enzyme solution.
The stock solution of each test compound was diluted in DMSO to prepare diluted DMSO solutions of 10 concentrations (0.00003 mM, 0.0001 mM, 0.0003 mM, 0.001 mM, 0.003 mM, 0.01 mM, 0.03 mM, 0.1 mM, 0.3 mM, 1 mM), each of which was further diluted 25 times in the assay buffer to make a drug solution (a solution containing 4% DMSO).
The kinase reaction was performed in wells of a polypropylene 384-well plate in which 5 μl of each of the drug solutions or of a solvent (assay buffer containing 4% DMSO), 5 μl of the substrate mixture solution, and 10 μl of the enzyme solution were mixed. The assay buffer, instead of the enzyme solution, was added to blank wells. After the reaction at room temperature for 5 hours, 60 μl of the termination buffer supplied in the kit was added to each well to stop the reaction. The percent inhibition of each reaction was determined using a LabChip EZ Reader II system (manufactured by Caliper Life Sciences), according to the protocol provided with the assay kit. In this case, the peak heights of the separated substrate and the phosphorylated substrate were represented as S and P, respectively, and the percent inhibition (%) by a tested compound was calculated according to the following formula: Percent inhibition(%)=(1−(C−A)/(B−A))×100 wherein A denotes P/(P+S) for a blank well, B denotes P/(P+S) for a solvent well, and C denotes P/(P+S) for a compound-added well.
The IC50 value of a tested compound was calculated by regression analysis of the percent inhibition values versus the (logarithmic) concentrations of the tested compound.

[2] = system: MCM2 phosphorylation in COLO205 cells; test: Inhibitory effect on MCM2 phosphorylation using cells (Western blot); assay type: cell-based; conditions: Homo sapiens, COLO 205, 0.1 μM test compound, 24 hours, class by percent phosphorylation of MCM2, read-out: Test Example 2 Inhibitory effect on MCM2 phosphorylation
Method: [Inhibitory Effect on Phosphorylation Using Cells]
COLO205 cells derived from human colon adenocarcinoma (RCB2127, RIKEN BRC) were cultured in 10 cm dishes using RPMI-1640 medium (SIGMA, R8758) supplemented with 10% FCS (Equitech-bio) and 5% penicillin/streptomycin (GIBCO, 15140). After the cells were cultured to a confluence of 70 to 90%, the medium was removed, and the cells were treated with trypsin (2 mL, TrypLE Express, GIBCO, 12604-021) and then harvested using a new medium.
COLO205 cells were seeded in 6-well plates (FALCON, 35046) to 2.5×10^5 cells (1 ml) per well and cultured overnight in a 5% CO2 incubator. A drug solution, which was prepared by adding 1.5 μl of a 0.1-mM stock solution in DMSO of a test compound to 500 μl of medium, was added to each well (to a final drug concentration of 0.1 μM), and then cultured for another 24 hours.
Cells were cultured for 24 hours in the presence of a test compound, harvested using a similar way as described above, washed with PBS, and then pelletized and stored at −80° C. The frozen cells were thawed, subsequently suspended immediately in 2×SDS-PAGE electrophoresis buffer (1×10^5 cells per 10 μl), and heated at 95° C. for 10 minutes, leading to the dissolution and denaturation of the proteins. The resulting sample solutions were subjected to SDS-PAGE using a 5-20% gradient acrylamide gel (e-PAGEL (5-20%), ATTO, E-T520L). After the electrophoresis was completed, the gel was immersed in tris-glycine buffer supplemented with 20% methanol, and the proteins in the gel were transferred onto a PVDF membrane (MILLIPORE, Immobilon-P, IPVH00010) using a semi-dry transfer apparatus (TRNS-BLOT SD SEMI-DRY […] CELL, BIO RAD).
The transferred PVDF membrane was blocked with 5% skim milk (Difco Skim Milk, BD, 232100), and then subjected to reaction with an anti-MCM2 goat antibody (N-19, Santa Cruz, sc-9839) or anti-phosphorylated MCM2 rabbit antibody (S53) (Bethyl, A300-756A) as a primary antibody and additionally with an anti-α tubulin mouse antibody (Clone DM 1A, SIGMA, 9026) as an internal control. Each band was detected by chemiluminescence using an HRP-labeled anti-goat IgG donkey antibody (Santa Cruz, sc2020), anti-rabbit IgG sheep antibody (Roche, 12015218001), or anti-mouse IgG donkey antibody (Jackson ImmunoResearch, 715-035-151) as a secondary antibody. The combinations of and the diluted concentrations of the primary and secondary antibodies were as indicated below.
The bands which were detected were normalized using the amount of endogenous α-tubulin as a reference, and the percent phosphorylation of MCM2 was calculated for each of the tested compounds. Their inhibitory effects on MCM2 phosphorylation were indicated by a triple asterisk (***) in the case where the percent phosphorylation of MCM2 was less than 20%, by a dual asterisk (**) in the case where the percent phosphorylation of MCM2 was not less than 20% and less than 50%, and by a single asterisk (*) in the case where the percent phosphorylation of MCM2 was not less than 50% and less than 70%.

Chain of human Cdc7/human ASK complex protein (O00311 whole entry): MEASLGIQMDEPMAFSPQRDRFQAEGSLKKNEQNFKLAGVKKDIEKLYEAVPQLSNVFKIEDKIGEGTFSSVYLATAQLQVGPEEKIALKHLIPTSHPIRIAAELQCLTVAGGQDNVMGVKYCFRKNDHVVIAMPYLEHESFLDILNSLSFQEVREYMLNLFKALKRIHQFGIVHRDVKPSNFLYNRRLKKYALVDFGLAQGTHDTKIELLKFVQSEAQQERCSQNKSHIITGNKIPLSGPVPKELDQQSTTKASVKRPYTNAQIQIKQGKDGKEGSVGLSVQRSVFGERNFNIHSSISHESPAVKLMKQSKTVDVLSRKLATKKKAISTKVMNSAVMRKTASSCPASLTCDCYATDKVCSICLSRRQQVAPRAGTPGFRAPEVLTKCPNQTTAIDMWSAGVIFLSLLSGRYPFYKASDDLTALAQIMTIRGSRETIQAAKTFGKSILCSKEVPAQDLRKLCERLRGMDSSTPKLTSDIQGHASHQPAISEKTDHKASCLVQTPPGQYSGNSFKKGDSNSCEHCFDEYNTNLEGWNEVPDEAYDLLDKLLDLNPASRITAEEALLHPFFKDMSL
Chain of human Cdc7/human ASK complex protein (Q9UBU7 whole entry partner): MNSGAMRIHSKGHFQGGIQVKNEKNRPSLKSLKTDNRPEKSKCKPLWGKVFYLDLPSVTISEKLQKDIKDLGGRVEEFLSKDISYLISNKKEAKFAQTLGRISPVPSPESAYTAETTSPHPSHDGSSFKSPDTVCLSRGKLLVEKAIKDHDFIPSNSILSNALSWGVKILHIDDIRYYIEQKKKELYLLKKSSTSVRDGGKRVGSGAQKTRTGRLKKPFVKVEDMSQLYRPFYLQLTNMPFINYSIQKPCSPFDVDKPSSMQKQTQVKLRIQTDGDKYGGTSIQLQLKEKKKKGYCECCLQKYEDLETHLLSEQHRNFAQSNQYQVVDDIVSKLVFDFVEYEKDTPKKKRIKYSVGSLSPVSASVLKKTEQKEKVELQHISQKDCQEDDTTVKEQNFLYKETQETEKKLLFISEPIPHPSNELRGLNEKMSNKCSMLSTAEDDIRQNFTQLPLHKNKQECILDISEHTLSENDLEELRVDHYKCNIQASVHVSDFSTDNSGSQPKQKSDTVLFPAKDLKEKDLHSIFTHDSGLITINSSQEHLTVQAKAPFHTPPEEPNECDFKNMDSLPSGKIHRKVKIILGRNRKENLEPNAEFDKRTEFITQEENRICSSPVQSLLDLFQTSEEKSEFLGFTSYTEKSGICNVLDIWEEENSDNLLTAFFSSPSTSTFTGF

| Structure (SMILES) | IC50 [1] | inhibition at 0.1 µM [2] |
| --- | --- | --- |
| O=C(O)C1=C(Nc2ccccc2)O/C(=C\c2c[nH]c3ncccc23)C1=O [Example 22, 5-[(1H-Pyrrolo[2,3-b]pyridin-3-yl)methylene]-4-oxo-2-(phenylamino)-4,5-dihydrofuran-3-carboxylic acid] |  | 50 to 70% |
| CCOC(=O)C1=C(N2CCCCCC2)O/C(=C\c2c[nH]c3ncccc23)C1=O [Example 63] |  | < 20% |
| CCOC(=O)C1=C(N2CCC(C)CC2)O/C(=C\c2c[nH]c3ncccc23)C1=O [Example 78, Ethyl 5-[(1H-pyrrolo[2,3-b]pyridin-3-yl)methylene]-2-(4-methylpiperidino)-4-oxo-4,5-dihydrofuran-3-carboxylate] | 11 nM | < 20% |
| CCOC(=O)C1=C(N2CCc3ccccc3C2)O/C(=C\c2c[nH]c3ncccc23)C1=O [Example 102, Ethyl 5-[(1H-pyrrolo[2,3-b]pyridin-3-yl)methylene]-2-(3,4-dihydroisoquinolin-2(1H)-yl)-4-oxo-4,5-dihydrofuran-3-carboxylate] | 4 nM | < 20% |
| CCOC(=O)C1=C(Nc2ccc(CN(C)C)cc2C)O/C(=C\c2c[nH]c3ncccc23)C1=O [Example 129, Ethyl 5-[(1H-pyrrolo[2,3-b]pyridin-3-yl)methylene]-2-({4-[(dimethylamino)methyl]-2-methylphenyl}amino)-4-oxo-4,5-dihydrofuran-3-carboxylate] | 9 nM | < 20% |
| CCOC(=O)C1=C(NN2CCOCC2)O/C(=C\c2c[nH]c3ncccc23)C1=O [Example 142, Ethyl 5-[(1H-pyrrolo[2,3-b]pyridin-3-yl)methylene]-2-(morpholinoamino)-4-oxo-4,5-dihydrofuran-3-carboxylate] | 3 nM | 20 to 50% |

Continued, in another order:

| IC50 [1] | Structure (SMILES) | inhibition at 0.1 µM [2] |
| --- | --- | --- |
| 2 nM | CCOC(=O)C1=C(Nc2ccccc2Cl)O/C(=C\c2c[nH]c3ncccc23)C1=O [Example 15, Ethyl 5-[(1H-pyrrolo[2,3-b]pyridin-3-yl)methylene]-2-[(2-chlorophenyl)amino]-4-oxo-4,5-dihydrofuran-3-carboxylate] | 20 to 50% |
| 4 nM | CCOC(=O)C1=C(Nc2ccc3cn[nH]c3c2)O/C(=C\c2c[nH]c3ncccc23)C1=O [Example 68, Ethyl 5-[(1H-pyrrolo[2,3-b]pyridin-3-yl)methylene]-2-[(6-indazolyl)amino]-4-oxo-4,5-dihydrofuran-3-carboxylate] | < 20% |
| 5 nM | CCOC(=O)C1=C(Nc2ccc(OCCO)cc2F)OC(=Cc2c[nH]c3ncccc23)C1=O [Example 81, Ethyl 5-[(1H-pyrrolo[2,3-b]pyridin-3-yl)methylene]-2-{[2-fluoro-4-(2-hydroxyethoxy)phenyl]amino}-4-oxo-4,5-dihydrofuran-3-carboxylate] | < 20% |
| 3 nM | O=C(OCCCO)C1=C(Nc2ccc(F)cc2)O/C(=C\c2c[nH]c3ncccc23)C1=O [Example 89, 3-Hydroxypropyl 5-[(1H-pyrrolo[2,3-b]pyridin-3-yl)methylene]-2-[(4-fluorophenyl)amino]-4-oxo-4,5-dihydrofuran-3-carboxylate] | < 20% |
| 4 nM | CN(C)CCOC(=O)C1=C(Nc2ccc(F)cc2F)O/C(=C\c2c[nH]c3ncccc23)C1=O [Example 91, 2-(Dimethylamino)ethyl 5-[(1H-pyrrolo[2,3-b]pyridin-3-yl)methylene]-2-[(2,4-difluorophenyl)amino]-4-oxo-4,5-dihydrofuran-3-carboxylate] | < 20% |
| 3 nM | CCOC(=O)C1=C(Nc2ccc(NCCO)cc2C)O/C(=C\c2c[nH]c3ncccc23)C1=O [Example 126, Ethyl 5-[(1H-pyrrolo[2,3-b]pyridin-3-yl)methylene]-2-({4-[(2-hydroxyethyl)amino]-2-methylphenyl}amino)-4-oxo-4,5-dihydrofuran-3-carboxylate] | < 20% |
